1 substance from patent US8288363B2, “Medicaments for anti-herpes virus treatments” (ASE & BIO, priority 2006, dated 2012) can be followed below.

Where only a bound is given, the exact number is not on record here.

Common to all, as to assay: Anti-herpes activity, viability of infected vero cells (neutral red)
What all share (conditions): incubation time 72 hours

The subject of assay [1] is acyclovir-resistant strain HSV-2R. The format is cell-based, herpes simplex virus 2. As to the method: (§1) This method is based on the principle that living cells absorb neutral red, which is a vital stain. The optical density of the medium was measured at the maximum absorption wavelength of neutral red, that is to say 540 nm, using a spectrophotometer (SpectraCount™, microplate photometer, Packard). The optical density at 540 nm is proportional to the number of living cells in an infected culture (McLaren et al., Antiviral Research, 1983; 3: 223-234 and Langlois et al., Standardization, 1986, 14: 201-211).
(§2) The effective concentration (EC 50%), that is to say the concentration of the sulphated polysaccharide which enables infection of 50% of the cells of a culture to be inhibited, was measured for each viral strain.
(§3) The determination of the EC50 was carried out in 96-well microtitre plates in accordance with the following protocol. Vero cells are seeded at a cell density of 3.5·10^4 cells/well in 100 μl of MEM medium containing 8% FCS. For each viral suspension defined by its MOI: • the negative control column was filled with 100 μl of MEM medium with 8% FCS, • the virus control column was filled with 50 μl of viral suspension having the required MOI and with 50 μl of MEM medium with 8% FCS, • the PS3 control column was filled with 50 μl of PS3 having the desired concentration range or with 50 μl of acyclovir (Zovirax 0.05-5 μg/ml • finally, all the other columns were filled successively with 50 μl of PS3 having the required concentration range or with 50 μl of acyclovir (Zovirax 0.05-5 μg/ml) and with 50 μl of the viral suspension having the desired MOI.
(§4) The EC50 corresponding to the concentration which enables the cytopathic effect of the virus to be reduced by 50% was calculated in accordance with the following formula: […]
(§5) The anti-herpes activity of PS3 was evaluated and compared on each viral suspension of HSV-1, HSV-1R, HSV-2 and HSV-2R defined by an MOI of 0.01 ID50/cell for a cell concentration of 350,000 cells/ml, after incubation times of 48 and 72 hours.
(§6) This series of experiments was carried out applying the protocol enabling the EC50 to be determined, as described in Example 3.
(§7) The therapeutic indices (TI) of PS3, as well as three other reference products, that is to say acyclovir, dextran sulphate and phycarine, were determined in parallel for each viral strain.
(§8) The therapeutic index (TI) represents the ratio between the maximum non-toxic dose (or a dose inducing a quantified toxicity) and the dose inducing a favourable pharmacological effect.

The test system of the next assay is HSV-2. The format is cell-based, herpes simplex virus 2. As to the method: as §1, §2, §3, §4, §5, §6, §7, §8
For the next assay, the system named is HSV-1. The format is cell-based, herpes simplex virus 1. The procedure: as §1, §2, §3, §4, §5, §6, §7, §8
The test system of assay [2] is acyclovir-resistant strain HSV-1R. The format is cell-based, herpes simplex virus 1. The procedure:
as §1, §2, §3, §4, §5, §6, §7, §8

Take dextran sulphate [reference compound]: in assay [1], the “Therapeutic index HSV-2R” value was >4,545. In addition, in the assay on HSV-2, the “Therapeutic index HSV-2” value is on record as >3,571. Further, in the assay with HSV-1, the “Therapeutic index HSV-1” value is given as greater than 868. For the same substance, the “Therapeutic index HSV-1R” value in assay [2] was greater than 641.
